≈ marks a conversion by molar mass, not a printed value. Where “and” joins values, the source holds several entries; their conditions need not be identical. Equal entries are not always repeated.

The conditions of series [1]: mdck_mdr1.
Test in series [2]: not given
The source holds these as a separate data set.

The logD is lipophilicity at a set pH, counting ionised and neutral species. Usually Papp stands for the rate of passage across a membrane or cell layer, normalised by area and donor concentration. One may read the solubility (kinetic) as the concentration staying in solution when a stock, usually in DMSO, is diluted into the medium. Regarding `CC(C)[C@H](Nc1ncnc2[nH]c(-c3cnn(C)c3C#N)cc12)c1ccc2c(n1)OCCO2` (single isomer, unassigned), the logD was 3.7 and 3.9. Moreover, the Papp in series [1] was 13.7 ×10⁻⁶ cm/s and 14.6 ×10⁻⁶ cm/s. Besides, the kinetic solubility in series [2] was 53 µM and 50 µM.

As to `C=CC[C@H]1NCc2cc(NC(=O)c3cc(F)cc4[nH]ncc34)ccc21` (racemic), the logD was determined as 1.7. The compound further came in with a Papp in series [1] of 3.86 ×10⁻⁶ cm/s. In series [2], this compound yielded a solubility (kinetic) of 356 µM (≈ 120 µg/mL).

For `O=C(Nc1cc(Cl)cc(C(=O)Nc2cccc(C3CCNCC3)c2)c1)OCc1ccccc1`, the Papp in series [1] turned out to be 1.8 ×10⁻⁶ cm/s. In series [2], this compound came in with a solubility (kinetic) of 126 µM (≈ 58.5 µg/mL).

Compound `OCC#C[C@H](Nc1ccc2c(c1)CNC2)c1cc(Cl)cc2[nH]ncc12` (racemic) had a pH-dependent lipophilicity (logD) of 0.5. In series [1], this compound yielded an apparent permeability coefficient (Papp) of 0.592 ×10⁻⁶ cm/s. In series [2], this compound came in with a kinetic solubility of 135 µM (≈ 47.6 µg/mL).

With `CC(C)c1nc2c(C(=O)Nc3cccc(CN)c3)cccc2[nH]1`, the logD stood at 1.9. In series [1], this compound returned a Papp of 3.84 ×10⁻⁶ cm/s. Also, the kinetic solubility in series [2] worked out at 316 µM (≈ 97.4 µg/mL).

As to `O=C(NCC(F)F)[C@H](Nc1cc2c(cc1Br)CNC2)c1cc(Cl)cc(C2CC2)c1` (racemic), the logD was 2.9. Moreover, the Papp in series [1] was 0.2 ×10⁻⁶ cm/s. Further, the kinetic solubility in series [2] was determined as 333 µM (≈ 161 µg/mL).

`Clc1ccc2[nH]cc(Cc3ccc(-c4nn[nH]n4)cc3)c2c1` registered a log distribution coefficient (logD) of 2.1. The Papp in series [1] is 8.4 ×10⁻⁶ cm/s.

With `CO[C@H]1C[C@H](n2ncc3c(C(=O)Nc4ccc5c(c4)CNC5)cc(Cl)cc32)C1`, the log distribution coefficient (logD) came to 1.5. This compound also had a Papp in series [1] of 1.6 ×10⁻⁶ cm/s. Besides, the solubility (kinetic) in series [2] worked out at 340 µM (≈ 135 µg/mL).

Regarding `O=C(NCCCF)[C@H](Nc1ccc2c(c1)CNC2)c1cc(Cl)cc(C2CC2)c1` (racemic), the logD amounted to 1.2. This compound had a Papp in series [1] of 0.7 ×10⁻⁶ cm/s. In series [2], this compound yielded a kinetic solubility of 394 µM (≈ 158 µg/mL).

Take `CNC(=O)[C@H](Nc1ccc2c(c1)CNC2)c1cc(Cl)cc2[nH]c(-c3ccccc3)nc12` (racemic): the logD was 1.8. The apparent permeability coefficient (Papp) in series [1] was 1.02 ×10⁻⁶ cm/s. Also, the kinetic solubility in series [2] was 178 µM (≈ 76.9 µg/mL).

In the case of `NCc1cc(Cl)cc(C(=O)Nc2ccc3c(c2)CNC3)c1`, the logD was found to be 2.

`O=C1Cc2cc(C(=O)Nc3ccc4c(c3)CNC4)ccc2N1`: the Papp in series [1] came to 0.873 ×10⁻⁶ cm/s. This compound also gave a kinetic solubility in series [2] of 136 µM (≈ 39.9 µg/mL).

The compound `Cc1cc([C@H](Nc2ccc3c(c2)CNC3)C(=O)NCC(F)F)cc(C(F)(F)F)c1` (racemic) gave a pH-dependent lipophilicity (logD) of 1. The same compound returned a Papp in series [1] of 0.7 ×10⁻⁶ cm/s.

`CC(C)n1cc2c(C(=O)Nc3ccc4c(c3)CNC4)cc(Cl)cc2n1` registered a logD of 1.6. Further, the apparent permeability coefficient (Papp) in series [1] was determined as 3.4 ×10⁻⁶ cm/s. In series [2], this compound displayed a solubility (kinetic) of 181 µM (≈ 64.2 µg/mL).

`O=C(NCC(F)F)[C@H](Nc1ccc2c(c1)CNC2)c1cc(Cl)cc(C2CC2)c1` (racemic): the log distribution coefficient (logD) amounted to 1.6. In series [1], this compound yielded an apparent permeability coefficient (Papp) of 1.55 ×10⁻⁶ cm/s. For the same compound, in series [2], the kinetic solubility came out at 367 µM (≈ 149 µg/mL).

On to `COc1cc(Cl)cc([C@H](Nc2ccc3c(c2)CNC3)C(=O)NCC(F)F)c1` (racemic), for which the logD is 0.5. In series [1], the apparent permeability coefficient (Papp) stood at 0.7 ×10⁻⁶ cm/s.

As to `O=C(Nc1cc(Cl)cc(C(=O)Nc2cccc(-c3nnn[nH]3)c2)c1)OCc1ccccc1`, the pH-dependent lipophilicity (logD) came to 3.7. In series [1], this compound showed an apparent permeability coefficient (Papp) of 5.06 ×10⁻⁶ cm/s. In series [2], this compound returned a solubility (kinetic) of 65 µM (≈ 29.2 µg/mL).

Turning to `O=C(O)COc1cccc(NC(=O)c2cc(Cl)cc(NC(=O)OCc3ccccc3)c2)c1`, the logD was 1.8. In series [1], this compound had a Papp of 1.1 ×10⁻⁶ cm/s. Moreover, in series [2], the kinetic solubility was found to be 360 µM (≈ 164 µg/mL).

On to `NCc1cccc(NC(=O)c2cccn3cc(CN4CCCC4)nc23)c1`, for which the pH-dependent lipophilicity (logD) came out at 0.2. The apparent permeability coefficient (Papp) in series [1] is 5.25 ×10⁻⁶ cm/s. This compound returned a kinetic solubility in series [2] of 332 µM (≈ 116 µg/mL).

In turn, `NCc1cccc(NC(=O)c2cc(Cl)cc(NC(=O)OCc3ccccc3)c2)c1` returned a logD of 2.7. The compound further registered an apparent permeability (Papp) in series [1] of 2.11 ×10⁻⁶ cm/s. Also, the solubility (kinetic) in series [2] turned out to be 89 µM (≈ 36.5 µg/mL).

For the compound `O=C(NCC(F)F)[C@H](Nc1ccc2c(c1)CNC2)c1cc(Br)cc2nc[nH]c12` (racemic), the pH-dependent lipophilicity (logD) was 0.4. This compound also returned a Papp in series [1] of 0.5 ×10⁻⁶ cm/s.

As for `COc1cc(C#N)cc([C@H](Nc2ccc3c(c2)CNC3)C(=O)NCC(F)F)c1` (racemic), the logD was -0.4. In series [1], the Papp amounted to 0.5 ×10⁻⁶ cm/s. Besides, in series [2], the solubility (kinetic) stood at 381 µM (≈ 147 µg/mL).

Compound `C=C[C@H]1CN2CC[C@H]1C[C@@H]2[C@@H](O)c1ccnc2ccc(OC)cc12` gave an apparent permeability (Papp) in series [1] of 13.9 ×10⁻⁶ cm/s.

As for `CNC(=O)[C@H](Nc1cc(CN)cc(C(=O)O)c1)c1cc(Cl)cc(C2CC2)c1` (racemic), the logD stood at 0. The Papp in series [1] was 0.94 ×10⁻⁶ cm/s. In addition, the kinetic solubility in series [2] stood at 335 µM (≈ 130 µg/mL).

For `O=C(Nc1cc(Cl)cc(-c2ccc3[nH]c(C(=O)O)cc3c2)c1)OCc1ccccc1`, the pH-dependent lipophilicity (logD) was 3.7. The apparent permeability (Papp) in series [1] amounted to 0.61 ×10⁻⁶ cm/s. The same compound returned a kinetic solubility in series [2] of 356 µM (≈ 150 µg/mL).

In turn, `CC(C)[C@H](Nc1ncnc2[nH]c(-c3cnn(CC(=O)N(C)C)c3)cc12)c1ccc2c(c1)S(=O)(=O)CCC2` (single isomer, unassigned) yielded a log distribution coefficient (logD) of 2.2. The apparent permeability (Papp) in series [1] is 1.17 ×10⁻⁶ cm/s and 0.555 ×10⁻⁶ cm/s. In series [2], the solubility (kinetic) was 361 µM and 256 µM.

The values above are taken from the ASAP Discovery antiviral challenge data (2025).
